Columns and labels:
Experiment in all cases: relative viability (nuclei count vs DMSO), 5 days (fraction); higher = more cells survive
Ibrutinib + Lapatinib = compound: C=CC(=O)N1CCC[C@@H](n2nc(-c3ccc(Oc4ccccc4)cc3)c3c(N)ncnc32)C1 [Ibrutinib] + CS(=O)(=O)CCNCc1ccc(-c2ccc3ncnc(Nc4ccc(OCc5cccc(F)c5)c(Cl)c4)c3c2)o1 [Lapatinib] (partner 2 µM)
Outline: (§1)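 Relative viability equals treated-well nuclei counts divided by vehicle-well nuclei counts. Counts came from 4× images of lung cancer cell lines grown in 1536-well plates for 5 days after pin-tool dosing on the day after seeding. Dosing used one drug alone or a fixed anchor-drug dose plus five library-drug doses (not always all listed) in √10 steps, and values are medians of duplicate plates.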

Ibrutinib + Alpelisib = compound: C=CC(=O)N1CCC[C@@H](n2nc(-c3ccc(Oc4ccccc4)cc3)c3c(N)ncnc32)C1 [Ibrutinib] + Cc1nc(NC(=O)N2CCC[C@H]2C(N)=O)sc1-c1ccnc(C(C)(C)C(F)(F)F)c1 [Alpelisib] (partner 2 µM)
Outline: as §1

Ibrutinib + Pemetrexed = compound: C=CC(=O)N1CCC[C@@H](n2nc(-c3ccc(Oc4ccccc4)cc3)c3c(N)ncnc32)C1 [Ibrutinib] + Nc1nc2[nH]cc(CCc3ccc(C(=O)N[C@@H](CCC(=O)O)C(=O)O)cc3)c2c(=O)[nH]1 [Pemetrexed] (partner 0.2 µM)
Outline: as §1

BMX-IN-1 + Linsitinib = compound: C=CC(=O)Nc1cc(-n2c(=O)ccc3cnc4ccc(-c5ccc(NS(C)(=O)=O)cc5)cc4c32)ccc1C [BMX-IN-1] + C[C@]1(O)C[C@@H](c2nc(-c3ccc4ccc(-c5ccccc5)nc4c3)c3c(N)nccn32)C1 [Linsitinib] (partner 1 µM)
Outline: as §1

SK-MES-1
relative viability (Ibrutinib + Lapatinib; first compound 0.005 µM): 0.506 | relative viability (Ibrutinib + Lapatinib; first compound 0.01581 µM): 0.456 | relative viability (Ibrutinib + Lapatinib; first compound 0.05 µM): 0.461 | relative viability (Ibrutinib + Lapatinib; first compound 0.1581 µM): 0.446 | relative viability (Ibrutinib + Lapatinib; first compound 0.5 µM): 0.441 | relative viability (Ibrutinib + Alpelisib; first compound 0.005 µM): 0.441 | relative viability (Ibrutinib + Alpelisib; first compound 0.01581 µM): 0.842 | relative viability (Ibrutinib + Alpelisib; first compound 0.05 µM): 0.599 | relative viability (Ibrutinib + Alpelisib; first compound 0.1581 µM): 1 | relative viability (Ibrutinib + Alpelisib; first compound 0.5 µM): 0.379 | relative viability (Ibrutinib + Pemetrexed; first compound 0.005 µM): 1.01 | relative viability (Ibrutinib + Pemetrexed; first compound 0.01581 µM): 0.951 | relative viability (Ibrutinib + Pemetrexed; first compound 0.05 µM): 0.905 | relative viability (Ibrutinib + Pemetrexed; first compound 0.1581 µM): 1.14 | relative viability (Ibrutinib + Pemetrexed; first compound 0.5 µM): 0.752 | relative viability (BMX-IN-1 + Linsitinib; first compound 0.02 µM): 1.11 | relative viability (BMX-IN-1 + Linsitinib; first compound 0.2 µM): 1.06 | relative viability (BMX-IN-1 + Linsitinib; first compound 0.6325 µM): 1.15 | relative viability (BMX-IN-1 + Linsitinib; first compound 2 µM): 1.07

Source: the supplement of paper PMC10307832
